How the values were obtained:
sEV-VEGF = molecular target: T1, sEV-VEGF (Homo sapiens, UniProt P15692); test: Flow cytometric analysis of binding of coupled microbeads to VEGF on the surface of sEVs; details: exo-FITC fluorescence
T1 construct: Parental ES2, SKOV3, HCT116 and 786-0 cell lines were purchased from ATCC; endogenous in cells; host or cells: sEVs of parental (VEGF+/+) ES2 and HCT116 cells
T1 sequence (P15692 27-215 isoform P15692-2): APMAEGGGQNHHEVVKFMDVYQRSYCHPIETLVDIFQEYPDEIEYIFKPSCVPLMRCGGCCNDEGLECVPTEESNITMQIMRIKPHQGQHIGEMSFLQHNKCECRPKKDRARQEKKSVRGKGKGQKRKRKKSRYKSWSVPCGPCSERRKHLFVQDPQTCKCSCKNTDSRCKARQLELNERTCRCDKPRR
Experimental: To detect sEV-associated proteins by using Ab-coupled microbeads, acquisition and analysis of flow cytometry data were performed using a FACSCalibur™ cytometer equipped with CellQuest™ Pro software (BD Biosciences). […] Thereafter, microbeads were incubated with sEVs (100 μg, approximately 2×10^8 vesicles) at 4° C. for 16 h with rotation, washed with 1% BSA in PBS, stained with exo-FITC dye, and then acquired. Binding of Ab to protein on the surface of sEVs was evaluated by analyzing exo-FITC fluorescence in the gated population of singlet microbeads. A minimum of 10,000 gated events was analyzed for each sample. […] Following washing, microbeads were acquired and PerCP fluorescence analyzed in the gated population of singlet microbeads. […] Three independent experiments were performed for each assay. Contour plots were generated by using CellQuest™ Pro software.

VEGFR2 = VEGFR2 phosphorylation in HUVEC (immunoblot); type: cell-based, human
Experimental: (§1) Uptake of sEVs was blocked by treating HUVEC with chlorpromazine (15 μM) or dynasore (50 μM) for 30 min prior to addition of sEVs. As a negative control, HUVEC were pretreated with DMSO solvent (0.1%). VEGFR signaling was blocked by treating HUVEC with axitinib (1 nM) or vandetanib (1 μM) for 2 h or with neutralizing Ab to VEGFR2 (250 ng/mL) for 1 h prior to addition of sEVs or recombinant VEGF. […] Thereafter, mixtures were added to HUVEC cultures. To detect intracellular VEGF, cancer cells where indicated were incubated at 37° C. for 6 h with brefeldin A (BioLegend) (5 μg/mL) to block protein secretion and then harvested.
Extracts were prepared by lysing whole cells and sEVs in M-PER buffer (Thermo Fisher Scientific). Protein concentrations of lysates were determined by Bradford assay (BioRad). Lysates were separated by SDS-polyacrylamide gel electrophoresis under non-reducing conditions to detect VEGF and under reducing conditions to detect other proteins, and then transferred to polyvinylidene difluoride membrane (GE Healthcare). Membranes were blocked with 5% non-fat milk in Tris-buffered saline with 0.1% Tween-20 (TBS-T), incubated with primary Ab at 4° C. for 16 h, and then washed with TBS-T buffer. Primary Ab were used at the following dilutions: 1:1000 (for Ab to TSG101, α-actinin-4, HSP90B1, calnexin, phospho-VEGFR2, VEGFR2, VEGF); 1:2000 (for Ab to HSP70); 1:5000 (for Ab to actin). Thereafter, membranes were incubated with 1-IRP-conjugated secondary Ab (1:5000 dilution), washed and visualized with ECL detection reagent (Millipore). Immunoblot data was verified in 3 independent experiments.

ES2 VEGF^−/− cells = test: Nude mice with i.p. ES2 VEGF−/− xenografts administered sEVs or recombinant VEGF; type: in vivo; details: vs control Ig
Experimental: (§2) Animal studies were conducted in compliance with protocols approved by the UTMDACC Institutional Animal Care and Use Committee. Four-week-old female nude mice (purchased from UTMDACC animal facility) were used to propagate xenografts. To evaluate VEGF levels in ascites, mice were inoculated i.p, with 1×10^6 ES2 VEGF^+/+ cells, and euthanized by CO2 asphyxiation upon formation of morbid ascites (median survival time of 3 weeks), To evaluate the effects of sEVs, mice were inoculated i.p. with 2×10^6 GFP-expressing ES2 VEGF^−/− cells. […] Mice were treated with these agents i.p. 3 times a week for 2 weeks and thereafter euthanized. […] The 6 doses of sEVs at 500 μg per dose was based on the average volume of ascites and concentration of tumor-derived sEV-VEGF in ascites that forms in mice with i.p. xenografts derived from ES2 VEGF^+/+ cells (FIGS. 15A, 15B). Following euthanasia, volumes of ascites were measured. GFP-expressing tumors were visualized under a Leica MZMLIII stereomicroscope equipped with a GFP filter set and digital camera. Images were captured by using Picture Frame software (Optronics). Tumor burden was quantified by measuring areas of fluorescence signals within the abdominal cavity in captured images by using Image Pro Plus software (Media Cybernetics) as performed previously (Ko et al., 2009). To visualize intratumoral blood vessels, sections of omental tumor tissues, frozen in Optimal Cutting Temperature compound (Thermo Fisher Scientific), were stained with Ab to GFP (1:500 dilution) and CD31 (1:50 dilution) and with DAPI, and viewed under a Nikon 80i fluorescence microscope. Numbers of intratumoral CD31^+ cells were counted in 5 random 100× fields per section and an average score was determined for each mouse. To evaluate circulating VEGF levels, mice were inoculated s.c. with 5×10^6 ES2 VEGF^+/+ cells or HCT116 VEGF^+/+ cells. At 7 days thereafter when tumors were palpable, blood samples were collected retro-orbitally. […] Volumes of s.c. tumors were calculated from 2 perpendicular measurements of tumor diameters taken using calipers. Pre- and post-treatment plasma samples were pre-cleared with Protein G Sepharose 4 Fast Flow (GE Healthcare) at 4° C. for 16 h to remove Ab-bound VEGF and thereafter were assayed for VEGF by ELISA.

parental ES2 cells = test: Nude mice with s.c. tumors from parental ES2 cells, tumor volume and plasma human VEGF; type: in vivo
Experimental: as §2, with “Pre- and post-treatment plasma samples were pre-cleared with Protein G Sepharose 4 Fast Flow (GE Healthcare) at 4° C. for 16 h to remove Ab-bound VEGF and thereafter were assayed for VEGF by ELISA.” left out

parental HCT116 cells = test: Nude mice with s.c. tumors from parental HCT116 cells, tumor volume and plasma human VEGF; type: in vivo
Experimental: as §2, with “Pre- and post-treatment plasma samples were pre-cleared with Protein G Sepharose 4 Fast Flow (GE Healthcare) at 4° C. for 16 h to remove Ab-bound VEGF and thereafter were assayed for VEGF by ELISA.” left out

[1] = system: VEGF in cancer cell-conditioned media; test: Quantification of unbound bevacizumab in whole and sEV-depleted cancer cell-conditioned media (ELISA); type: binding, human
Experimental: Samples of plasma and ascites (diluted 1:10 in PBS) and conditioned media were centrifuged at 2,400×g at 4° C. for 10 min to remove intact cells and cell debris. Thereafter, supernatants were filtered through a 0.2 μm pore size filter to remove larger particles. A 300 μL aliquot of filtrate was retained for analysis of VEGF. The remainder of the filtrate was centrifuged at 100,000×g at 4° C. for 18 h to remove sEVs. Thereafter, the supernatant (comprising of sEV-depleted sample) was assayed for VEGF.
Wells of 96-well High Bind microplates were coated with recombinant VEGF (100 ng) at RT for 16 h, After washing three times with wash buffer (R&D Systems), wells were blocked with 10% goat serum for 1 h and washed again. […] Absorbance was read at 450 nm.

HUVEC = test: Tube formation assay in HUVEC; type: cell-based, human
Experimental: as §1
Wells of 96-well plates were coated with growth factor-reduced Matrigel (BD Biosciences) (50 μL/well) and incubated at 37° C. for 30 min. HUVEC (10^4 cells/well) were then seeded in FBS-free Medium 199 without or with addition of sEVs (100 μg/mL) or recombinant VEGF (1 ng/mL), or seeded in whole or sEV-depleted conditioned media. Following incubation at 37° C. for 4 h, capillary tube structures were visualized under a Nikon TS100 light microscope attached to a digital camera. In each experiment, images of 2 to 3 random 100× fields of each well were captured by using NIS Element BR 4 software (Nikon). The number of tubes in each field was quantified by using NIH Image) software with Angiogenesis Analyzer plugin, and an average calculated for each well. […]

[2] = endothelial cells stimulated with VEGF+/+ sEVs
[3] = endothelial cells stimulated with recombinant VEGF

“VEGFR1/R2-Fc: chimera of the ligand-binding domains of VEGFR1 and VEGFR2 fused to the Fc portion of human IgG1” was tested, and the “Binding to VEGF+/+ sEVs” value (sEV-VEGF; coupled microbeads incubated with VEGF+/+ sEVs) was “bound” and the “Binding to VEGF−/− sEVs” value (sEV-VEGF; coupled microbeads incubated with VEGF−/− sEVs (negative control)) was “not”.

“bevacizumab: humanized monoclonal antibody to human vascular endothelial growth factor (VEGF)” was tested, and the VEGFR2 phosphorylation (VEGFR2; [2]) was “not”, the VEGFR2 phosphorylation (VEGFR2; [3]) was “blocked” and the VEGFR2 phosphorylation (VEGFR2; endothelial cells stimulated with sEV-depleted media) was “completely blocked”. For the same substance, the VEGFR2 phosphorylation (VEGFR2; endothelial cells stimulated with whole media) was “only partially inhibited”, the Angiogenesis (ES2 VEGF^−/− cells; mice administered VEGF+/+ sEVs) was “not” and the Ascites (ES2 VEGF^−/− cells; mice administered VEGF+/+ sEVs) was “not”. For the same substance, the Tumor growth (ES2 VEGF^−/− cells; mice administered VEGF+/+ sEVs) was “not”, the Tumor growth (ES2 VEGF^−/− cells; mice administered recombinant VEGF189, 5 mg/kg i.p. 3 times a week for 2 weeks, P<0.001) was “inhibited” and the Angiogenesis (ES2 VEGF^−/− cells; mice administered recombinant VEGF189, P<0.0001) was “inhibited”. For the same substance, the Ascites (ES2 VEGF^−/− cells; mice administered recombinant VEGF189, P<0.001) was “inhibited”, the “sEV-VEGF levels in plasma” value (parental ES2 cells; ES2, estimated from difference between whole and sEV-depleted plasma, following treatment, P<0,01) was “increased” and the “non-sEV-VEGF levels in plasma” value (parental ES2 cells; ES2, sEV-depleted plasma, following treatment, P<0.05) was “decreased”. The Tumor growth (parental ES2 cells; s.c. ES2 tumors, treatment for one week) was “did not inhibit”, the “sEV-VEGF levels in plasma” value (parental HCT116 cells; HCT116, estimated from difference between whole and sEV-depleted plasma, following treatment, P<0.05) was “increased” and the “non-sEV-VEGF levels in plasma” value (parental HCT116 cells; HCT116, sEV-depleted plasma, following treatment, P<0.001) was “decreased”. The Tumor growth (parental HCT116 cells; s.c. HCT116 tumors, treatment for one week) was “did not inhibit”, the “Levels of unbound bevacizumab in whole media compared with sEV-depleted media” value ([1]; cancer cell-conditioned media incubated with bevacizumab) was “almost identical” and the Unbound bevacizumab levels ([1]; sEV-depleted media to which recombinant VEGF189 had been added) was “decrease”. For the same substance, the Tube formation (HUVEC; [2]) was “not” and the Tube formation (HUVEC; [3]) was “blocked”.

Source: patent publication US12656349B2, “Measurement of bevacizumab-insensitive vascular endothelial growth factor-a” (Board of Regents, The University of Texas System, priority 2019, dated 2026)
